According to paper PMC5513037, “Examining the influence of specificity ligands and ATP-competitive ligands on the overall effectiveness of bivalent kinase inhibitors” (Proteome Science, 2017):

Experiments:
Experiment in all cases: KAM-matrix competition in K562 lysate;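 on 0.001 uM KAM: median log10 fold change of treatment over DMSO control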;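 on 0.01 uM KAM: median log10 fold change of treatment over DMSO control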;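 on 0.1 uM KAM: median log10 fold change of treatment over DMSO control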;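 on 1 uM KAM: median log10 fold change of treatment over DMSO control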;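 on 10 uM KAM: median log10 fold change of treatment over DMSO control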
Format in all cases: binding
ACVR2B = target: T1, ACVR2B (Homo sapiens, UniProt Q13705);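 on 0.001 uM KAM: median log10 fold change of treatment over DMSO control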;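 on 0.01 uM KAM: median log10 fold change of treatment over DMSO control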;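 on 0.1 uM KAM: median log10 fold change of treatment over DMSO control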;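 on 1 uM KAM: median log10 fold change of treatment over DMSO control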;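 on 10 uM KAM: median log10 fold change of treatment over DMSO control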
T1 construct: endogenous in cells; host or cells: K562 cell lysate
Method: (§1) Supplement 12953_2017_125_MOESM1_ESM.zip/MS_Supp Info.xlsx, sheet "KAM" | column: 10 uM KAM; 1 uM KAM; 0.1 uM KAM; 0.01 uM KAM; 0.001 uM KAM; RB50

ROCK2 = target: T2, ROCK2 (Homo sapiens, UniProt O75116);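 on 0.001 uM KAM: median log10 fold change of treatment over DMSO control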;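 on 0.01 uM KAM: median log10 fold change of treatment over DMSO control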;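 on 0.1 uM KAM: median log10 fold change of treatment over DMSO control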;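 on 1 uM KAM: median log10 fold change of treatment over DMSO control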;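 on 10 uM KAM: median log10 fold change of treatment over DMSO control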
T2 construct: endogenous in cells; host or cells: K562
Method: as §1

CDC42BPA = target: T3, CDC42BPA (Homo sapiens, UniProt Q5VT25);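 on 0.001 uM KAM: median log10 fold change of treatment over DMSO control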;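 on 0.01 uM KAM: median log10 fold change of treatment over DMSO control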;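 on 0.1 uM KAM: median log10 fold change of treatment over DMSO control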;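 on 1 uM KAM: median log10 fold change of treatment over DMSO control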;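 on 10 uM KAM: median log10 fold change of treatment over DMSO control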
T3 construct: endogenous in cells; host or cells: K562
Method: as §1

MAP2K1 = target: T4, MAP2K1 (Homo sapiens, UniProt Q02750)
T4 construct: endogenous in cells; host or cells: K562
Method: as §1

BRD4 = target: T5, BRD4 (Homo sapiens, UniProt O60885);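 on 0.001 uM KAM: median log10 fold change of treatment over DMSO control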;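 on 0.01 uM KAM: median log10 fold change of treatment over DMSO control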;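 on 0.1 uM KAM: median log10 fold change of treatment over DMSO control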;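 on 1 uM KAM: median log10 fold change of treatment over DMSO control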;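 on 10 uM KAM: median log10 fold change of treatment over DMSO control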
T5 construct: endogenous in cells; host or cells: K562
Method: as §1

CSNK2A2 = target: T6, CSNK2A2 (Homo sapiens, UniProt P19784)
T6 construct: endogenous in cells; host or cells: K562
Method: as §1

FLT1 = target: T7, FLT1 (Homo sapiens, UniProt P17948);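 on 0.001 uM KAM: median log10 fold change of treatment over DMSO control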;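 on 0.01 uM KAM: median log10 fold change of treatment over DMSO control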;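 on 0.1 uM KAM: median log10 fold change of treatment over DMSO control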;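 on 1 uM KAM: median log10 fold change of treatment over DMSO control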;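 on 10 uM KAM: median log10 fold change of treatment over DMSO control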
T7 construct: endogenous in cells; host or cells: K562
Method: as §1

CDK17 = target: T8, CDK17 (Homo sapiens, UniProt Q00537);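 on 0.001 uM KAM: median log10 fold change of treatment over DMSO control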;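 on 0.01 uM KAM: median log10 fold change of treatment over DMSO control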;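 on 0.1 uM KAM: median log10 fold change of treatment over DMSO control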;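 on 1 uM KAM: median log10 fold change of treatment over DMSO control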;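 on 10 uM KAM: median log10 fold change of treatment over DMSO control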
T8 construct: endogenous in cells; host or cells: K562 cell lysate
Method: as §1

HIPK2 = target: T9, HIPK2 (Homo sapiens, UniProt Q9H2X6)
T9 construct: endogenous in cells; host or cells: K562 cell lysate
Method: as §1

KIT = target: T10, KIT (Homo sapiens, UniProt P10721);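 on 0.001 uM KAM: median log10 fold change of treatment over DMSO control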;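 on 0.01 uM KAM: median log10 fold change of treatment over DMSO control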;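 on 0.1 uM KAM: median log10 fold change of treatment over DMSO control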;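 on 1 uM KAM: median log10 fold change of treatment over DMSO control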;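 on 10 uM KAM: median log10 fold change of treatment over DMSO control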
T10 construct: endogenous in cells; host or cells: K562 cells (combined S0.8 and P0.8 lysate)
Method: as §1

CDK7 = target: T11, CDK7 (Homo sapiens, UniProt P50613)
T11 construct: endogenous in cells; host or cells: K562
Method: as §1

ACVR1 = target: T12, ACVR1 (Homo sapiens, UniProt Q04771)
T12 construct: endogenous in cells; host or cells: K562
T12 sequence (Q04771 21-509): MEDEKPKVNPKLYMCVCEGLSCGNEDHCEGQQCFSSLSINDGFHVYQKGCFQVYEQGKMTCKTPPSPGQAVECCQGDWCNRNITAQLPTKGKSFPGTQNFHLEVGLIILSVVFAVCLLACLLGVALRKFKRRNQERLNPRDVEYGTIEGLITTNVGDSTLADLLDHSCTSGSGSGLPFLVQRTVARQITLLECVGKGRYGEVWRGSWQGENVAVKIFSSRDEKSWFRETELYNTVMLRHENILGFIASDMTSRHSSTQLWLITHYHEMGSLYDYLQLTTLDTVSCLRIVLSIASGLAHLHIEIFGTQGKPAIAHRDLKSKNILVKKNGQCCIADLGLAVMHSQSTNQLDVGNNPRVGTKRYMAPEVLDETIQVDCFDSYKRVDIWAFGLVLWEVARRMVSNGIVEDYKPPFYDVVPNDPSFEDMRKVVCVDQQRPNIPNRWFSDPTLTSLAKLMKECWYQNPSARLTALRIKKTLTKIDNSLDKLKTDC
Method: as §1

DAPK1 = target: T13, DAPK1 (Homo sapiens, UniProt P53355);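 on 0.001 uM KAM: median log10 fold change of treatment over DMSO control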;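 on 0.01 uM KAM: median log10 fold change of treatment over DMSO control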;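 on 0.1 uM KAM: median log10 fold change of treatment over DMSO control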;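 on 1 uM KAM: median log10 fold change of treatment over DMSO control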;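 on 10 uM KAM: median log10 fold change of treatment over DMSO control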
T13 construct: endogenous in cells; host or cells: K562
Method: as §1

[1] = KAM 0.001-10 uM, read-out: RB50 (the source's name)
[2] = read-out: RB50 (the source's name)

N#CCc1ccc(Nc2nc(NCCCN)cc(Nc3cc(C4CC4)[nH]n3)n2)cc1 [KAM]
IC50 (ACVR2B; [1]): > 10 µM
0.001 uM KAM (ACVR2B; relative to 0 uM KAM = 0): 0.02766
0.01 uM KAM (ACVR2B; relative to 0 uM KAM = 0): -0.009918
0.1 uM KAM (ACVR2B; relative to 0 uM KAM = 0): -0.09138
1 uM KAM (ACVR2B; relative to 0 uM KAM = 0): -0.2794
10 uM KAM (ACVR2B; relative to 0 uM KAM = 0): -0.2958
IC50 (ROCK2; [1]): > 10 µM
0.001 uM KAM (ROCK2; relative to 0 uM KAM = 0): 0.005547
0.01 uM KAM (ROCK2; relative to 0 uM KAM = 0): 0.004918
0.1 uM KAM (ROCK2; relative to 0 uM KAM = 0): -0.08686
1 uM KAM (ROCK2; relative to 0 uM KAM = 0): -0.1587
10 uM KAM (ROCK2; relative to 0 uM KAM = 0): -0.127
IC50 (CDC42BPA; [1]): > 10 µM
0.001 uM KAM (CDC42BPA; relative to 0 uM KAM = 0): -0.02138
0.01 uM KAM (CDC42BPA; relative to 0 uM KAM = 0): -0.0113
0.1 uM KAM (CDC42BPA; relative to 0 uM KAM = 0): -0.01108
1 uM KAM (CDC42BPA; relative to 0 uM KAM = 0): 0.04656
10 uM KAM (CDC42BPA; relative to 0 uM KAM = 0): -0.06135
median Log10 fold change (MAP2K1; 0.001 uM KAM): -0.01014
median Log10 fold change (MAP2K1; 0.01 uM KAM): -0.05282
median Log10 fold change (MAP2K1; 0.1 uM KAM): -0.2542
median Log10 fold change (MAP2K1; 1 uM KAM): -0.5685
median Log10 fold change (MAP2K1; 10 uM KAM): -0.7087
IC50 (MAP2K1; [2]): 0.164 µM
IC50 (BRD4; [1]): > 10 µM
0.001 uM KAM (BRD4; relative to 0 uM KAM = 0): -0.02698
0.01 uM KAM (BRD4; relative to 0 uM KAM = 0): 0.00122
0.1 uM KAM (BRD4; relative to 0 uM KAM = 0): 0.04808
1 uM KAM (BRD4; relative to 0 uM KAM = 0): 0.01224
10 uM KAM (BRD4; relative to 0 uM KAM = 0): -0.001488
median Log10 fold change (CSNK2A2; 0.001 uM KAM): 0.0115
median Log10 fold change (CSNK2A2; 0.01 uM KAM): -0.003085
median Log10 fold change (CSNK2A2; 0.1 uM KAM): -0.2921
median Log10 fold change (CSNK2A2; 1 uM KAM): -0.5833
median Log10 fold change (CSNK2A2; 10 uM KAM): -0.635
IC50 (CSNK2A2; [2]): 0.15 µM
IC50 (FLT1; [1]): > 10 µM
0.001 uM KAM (FLT1; relative to 0 uM KAM = 0): -0.03836
0.01 uM KAM (FLT1; relative to 0 uM KAM = 0): 0.0203
0.1 uM KAM (FLT1; relative to 0 uM KAM = 0): -0.001012
1 uM KAM (FLT1; relative to 0 uM KAM = 0): -0.1879
10 uM KAM (FLT1; relative to 0 uM KAM = 0): -0.2168
IC50 (CDK17; [1]): > 10 µM
0.001 uM KAM (CDK17; relative to 0 uM KAM = 0): -0.02399
0.01 uM KAM (CDK17; relative to 0 uM KAM = 0): -0.01557
0.1 uM KAM (CDK17; relative to 0 uM KAM = 0): -0.06864
1 uM KAM (CDK17; relative to 0 uM KAM = 0): -0.1892
10 uM KAM (CDK17; relative to 0 uM KAM = 0): -0.2802
median Log10 fold change (HIPK2; 0.001 uM KAM): -0.003211
median Log10 fold change (HIPK2; 0.01 uM KAM): 0.02239
median Log10 fold change (HIPK2; 0.1 uM KAM): -0.07372
median Log10 fold change (HIPK2; 1 uM KAM): -0.2033
median Log10 fold change (HIPK2; 10 uM KAM): -0.3492
IC50 (HIPK2; [2]): 4.26 µM
IC50 (KIT; [1]): > 10 µM
0.001 uM KAM (KIT; relative to 0 uM KAM = 0): -0.03484
0.01 uM KAM (KIT; relative to 0 uM KAM = 0): -0.02696
0.1 uM KAM (KIT; relative to 0 uM KAM = 0): -0.08182
1 uM KAM (KIT; relative to 0 uM KAM = 0): -0.1617
10 uM KAM (KIT; relative to 0 uM KAM = 0): -0.1565
median Log10 fold change (CDK7; 0.001 uM KAM): -0.0273
median Log10 fold change (CDK7; 0.01 uM KAM): -0.01722
median Log10 fold change (CDK7; 0.1 uM KAM): -0.1187
median Log10 fold change (CDK7; 1 uM KAM): -0.275
median Log10 fold change (CDK7; 10 uM KAM): -0.3928
IC50 (CDK7; [2]): 1.66 µM
median Log10 fold change (ACVR1; 0.001 uM KAM): 0.003413
median Log10 fold change (ACVR1; 0.01 uM KAM): -0.1656
median Log10 fold change (ACVR1; 0.1 uM KAM): -0.6449
median Log10 fold change (ACVR1; 1 uM KAM): -0.6498
median Log10 fold change (ACVR1; 10 uM KAM): -0.7414
IC50 (ACVR1; [2]): 0.027 µM
IC50 (DAPK1; [1]): > 10 µM
0.001 uM KAM (DAPK1; relative to 0 uM KAM = 0): -0.04615
0.01 uM KAM (DAPK1; relative to 0 uM KAM = 0): 0.02037
0.1 uM KAM (DAPK1; relative to 0 uM KAM = 0): -0.07451
1 uM KAM (DAPK1; relative to 0 uM KAM = 0): -0.06277
10 uM KAM (DAPK1; relative to 0 uM KAM = 0): -0.09328
